{"source": "PubChem BioAssay (NCI)", "test_in_all_cases": "DTP human tumour cell line panel, 48 h", "key": {"[1]": {"tested_on": "786-0 renal"}, "[2]": {"tested_on": "MDA-MB-435"}, "[3]": {"tested_on": "NCI-H23 lung"}, "[4]": {"tested_on": "OVCAR-5 ovarian"}, "[5]": {"tested_on": "RXF 393 renal"}, "[6]": {"tested_on": "SF-268 CNS"}, "[7]": {"tested_on": "SK-MEL-5 melanoma"}, "[8]": {"tested_on": "UACC-257 melanoma"}}, "note": "Several values for one entry are separate records, joined by “and”; a condition that tells them apart may be missing. Identical values can stand only once.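 Protocol summary: plate cells (96-well), add compound at 5 concentrations, incubate 48 h, interpolate endpoints linearly. GI50 = concentration required for 50% inhibition of growth. TGI denotes the concentration required for complete inhibition of growth.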"}
{"smiles": "CC(=O)O[C@@H]1C2=C(C)C3(CC3)[C@@](C)(O)C(=O)C2=C[C@@]1(C)CO", "values": [{"measurement": "GI50", "setting": "[1]", "result": 2.04, "unit": "µM"}, {"measurement": "TGI", "setting": "[1]", "result": 6.1, "unit": "µM"}, {"measurement": "GI50", "setting": "[2]", "result": 0.48, "unit": "µM"}, {"measurement": "TGI", "setting": "[2]", "result": 1.72, "unit": "µM"}, {"measurement": "GI50", "setting": "[3]", "result": 0.473, "unit": "µM"}, {"measurement": "TGI", "setting": "[3]", "result": 2.66, "unit": "µM"}, {"measurement": "GI50", "setting": "[4]", "result": 0.427, "unit": "µM"}, {"measurement": "GI50", "setting": "[5]", "result": 0.24, "unit": "µM"}, {"measurement": "TGI", "setting": "[5]", "result": 0.658, "unit": "µM"}, {"measurement": "GI50", "setting": "[6]", "result": 0.357, "unit": "µM"}, {"measurement": "TGI", "setting": "[6]", "result": 2.79, "unit": "µM"}, {"measurement": "GI50", "setting": "[7]", "result": 1.73, "unit": "µM"}, {"measurement": "TGI", "setting": "[7]", "result": 3.2, "unit": "µM"}, {"measurement": "GI50", "setting": "[8]", "result": 1.65, "unit": "µM"}, {"measurement": "TGI", "setting": "[8]", "result": 5.38, "unit": "µM"}]}
{"smiles": "c1cc(C2CCCCC2)ccc1-c1cnc2nonc2n1", "values": [{"measurement": "GI50", "setting": "[1]", "result": 0.506, "unit": "µM"}, {"measurement": "TGI", "setting": "[1]", "result": 1.9, "unit": "µM"}, {"measurement": "GI50", "setting": "[2]", "result": 0.237, "unit": "µM"}, {"measurement": "TGI", "setting": "[2]", "result": 0.65, "unit": "µM"}, {"measurement": "GI50", "setting": "[3]", "result": 1.37, "unit": "µM"}, {"measurement": "TGI", "setting": "[3]", "result": 4.02, "unit": "µM"}, {"measurement": "GI50", "setting": "[4]", "result": 1.7, "unit": "µM"}, {"measurement": "TGI", "setting": "[4]", "result": 4.04, "unit": "µM"}, {"measurement": "GI50", "setting": "[5]", "result": 0.514, "unit": "µM"}, {"measurement": "TGI", "setting": "[5]", "result": 1.56, "unit": "µM"}, {"measurement": "GI50", "setting": "[6]", "result": 2.13, "unit": "µM"}, {"measurement": "TGI", "setting": "[6]", "result": 9.29, "unit": "µM"}, {"measurement": "GI50", "setting": "[7]", "result": 1.29, "unit": "µM"}, {"measurement": "TGI", "setting": "[7]", "result": 2.62, "unit": "µM"}, {"measurement": "GI50", "setting": "[8]", "result": 1.28, "unit": "µM"}, {"measurement": "TGI", "setting": "[8]", "result": 3.9, "unit": "µM"}]}
{"smiles": "COC(=O)c1ccc(NC(=O)c2ccc(NC3=C(Cl)C(=O)N(Cc4ccccc4)C3=O)cc2)cc1", "values": [{"measurement": "GI50", "setting": "[1]", "result": 10.9, "unit": "µM"}, {"measurement": "TGI", "setting": "[1]", "result": 22.9, "unit": "µM"}, {"measurement": "GI50", "setting": "[2]", "result": 12.3, "unit": "µM"}, {"measurement": "TGI", "setting": "[2]", "result": 27, "unit": "µM"}, {"measurement": "GI50", "setting": "[3]", "result": 12.1, "unit": "µM"}, {"measurement": "TGI", "setting": "[3]", "result": 24.4, "unit": "µM"}, {"measurement": "GI50", "setting": "[4]", "result": 21.5, "unit": "µM"}, {"measurement": "TGI", "setting": "[4]", "result": 39, "unit": "µM"}, {"measurement": "GI50", "setting": "[5]", "result": 22.9, "unit": "µM"}, {"measurement": "TGI", "setting": "[5]", "result": 48.3, "unit": "µM"}, {"measurement": "GI50", "setting": "[6]", "result": 22.2, "unit": "µM"}, {"measurement": "TGI", "setting": "[6]", "result": 59, "unit": "µM"}, {"measurement": "GI50", "setting": "[7]", "result": 34.7, "unit": "µM"}, {"measurement": "TGI", "setting": "[7]", "result": "> 100", "unit": "µM"}, {"measurement": "GI50", "setting": "[8]", "result": 27.3, "unit": "µM"}, {"measurement": "TGI", "setting": "[8]", "result": 76.5, "unit": "µM"}]}
{"smiles": "C[C@@]1(C(=O)O)CCC[C@]2(C)C1CC[C@]13C[C@@](O)(CO)[C@](O)(CC[C@]12O)C3", "note": "(stereo partly specified)", "values": [{"measurement": "GI50", "setting": "[1]", "result": "> 100", "unit": "µM"}, {"measurement": "TGI", "setting": "[1]", "result": "> 100", "unit": "µM"}, {"measurement": "GI50", "setting": "[2]", "result": "> 100", "unit": "µM"}, {"measurement": "TGI", "setting": "[2]", "result": "> 100", "unit": "µM"}, {"measurement": "GI50", "setting": "[3]", "result": "> 100", "unit": "µM"}, {"measurement": "TGI", "setting": "[3]", "result": "> 100", "unit": "µM"}, {"measurement": "GI50", "setting": "[4]", "result": "> 100", "unit": "µM"}, {"measurement": "TGI", "setting": "[4]", "result": "> 100", "unit": "µM"}, {"measurement": "GI50", "setting": "[5]", "result": "> 100", "unit": "µM"}, {"measurement": "TGI", "setting": "[5]", "result": "> 100", "unit": "µM"}, {"measurement": "GI50", "setting": "[6]", "result": "> 100", "unit": "µM"}, {"measurement": "TGI", "setting": "[6]", "result": "> 100", "unit": "µM"}, {"measurement": "GI50", "setting": "[7]", "result": "> 100", "unit": "µM"}, {"measurement": "TGI", "setting": "[7]", "result": "> 100", "unit": "µM"}, {"measurement": "GI50", "setting": "[8]", "result": "> 100", "unit": "µM"}, {"measurement": "TGI", "setting": "[8]", "result": "> 100", "unit": "µM"}]}
{"smiles": "COc1ccc2c(CCCc3ccc(Cl)cc3Cl)c3[n+](cc2c1OC)CCc1cc2c(cc1-3)OCO2", "values": [{"measurement": "GI50", "setting": "[1]", "result": 1.27, "unit": "µM"}, {"measurement": "TGI", "setting": "[1]", "result": 2.74, "unit": "µM"}, {"measurement": "GI50", "setting": "[2]", "result": 0.322, "unit": "µM"}, {"measurement": "TGI", "setting": "[2]", "result": 1.31, "unit": "µM"}, {"measurement": "GI50", "setting": "[3]", "result": 0.327, "unit": "µM"}, {"measurement": "TGI", "setting": "[3]", "result": 1.42, "unit": "µM"}, {"measurement": "GI50", "setting": "[4]", "result": 1.13, "unit": "µM"}, {"measurement": "TGI", "setting": "[4]", "result": 2.62, "unit": "µM"}, {"measurement": "GI50", "setting": "[7]", "result": 0.212, "unit": "µM"}, {"measurement": "TGI", "setting": "[7]", "result": 0.561, "unit": "µM"}]}
{"smiles": "O=C(N=Nc1c(Cl)c(O)c2ccccc2c1O)C(=O)Nc1cccc(C(F)(F)F)c1", "values": [{"measurement": "GI50", "setting": "[1]", "result": 12.6, "unit": "µM"}, {"measurement": "TGI", "setting": "[1]", "result": 25.1, "unit": "µM"}, {"measurement": "GI50", "setting": "[2]", "result": 1.89, "unit": "µM"}, {"measurement": "TGI", "setting": "[2]", "result": 3.43, "unit": "µM"}, {"measurement": "GI50", "setting": "[3]", "result": 2.67, "unit": "µM"}, {"measurement": "TGI", "setting": "[3]", "result": 10.2, "unit": "µM"}, {"measurement": "GI50", "setting": "[4]", "result": 14.7, "unit": "µM"}, {"measurement": "TGI", "setting": "[4]", "result": 28.6, "unit": "µM"}, {"measurement": "GI50", "setting": "[5]", "result": 5.81, "unit": "µM"}, {"measurement": "TGI", "setting": "[5]", "result": 18.8, "unit": "µM"}, {"measurement": "GI50", "setting": "[6]", "result": 3.37, "unit": "µM"}, {"measurement": "TGI", "setting": "[6]", "result": 13, "unit": "µM"}, {"measurement": "GI50", "setting": "[7]", "result": 1.7, "unit": "µM"}, {"measurement": "TGI", "setting": "[7]", "result": 3.98, "unit": "µM"}]}
{"smiles": "CC(C)c1[nH]nc2c(NCc3ccc(-c4ccccn4)cc3)nc(SCCN)nc12", "values": [{"measurement": "GI50", "setting": "[1]", "result": "0.143 µM and 0.327 µM"}, {"measurement": "GI50", "setting": "[2]", "result": 0.00422, "unit": "µM"}, {"measurement": "TGI", "setting": "[2]", "result": "1.08 µM and 1.07 µM"}, {"measurement": "GI50", "setting": "[3]", "result": "0.0212 µM and 0.0181 µM"}, {"measurement": "TGI", "setting": "[3]", "result": "0.797 µM and 0.0951 µM"}, {"measurement": "GI50", "setting": "[4]", "result": "0.0472 µM and 0.0385 µM"}, {"measurement": "TGI", "setting": "[4]", "result": 12.8, "unit": "µM"}, {"measurement": "GI50", "setting": "[5]", "result": 0.0169, "unit": "µM"}, {"measurement": "TGI", "setting": "[5]", "result": 0.0532, "unit": "µM"}, {"measurement": "GI50", "setting": "[6]", "result": 0.00684, "unit": "µM"}, {"measurement": "TGI", "setting": "[6]", "result": "7.12 µM and 5.24 µM"}, {"measurement": "GI50", "setting": "[8]", "result": "0.0414 µM and 0.0235 µM"}, {"measurement": "TGI", "setting": "[8]", "result": 0.0875, "unit": "µM"}]}
{"smiles": "CN(C)CCNC(=O)c1cccc2c1Oc1cccc([N+](=O)[O-])c1O2", "values": [{"measurement": "TGI", "setting": "[1]", "result": 42.6, "unit": "µM"}, {"measurement": "TGI", "setting": "[2]", "result": 32.6, "unit": "µM"}, {"measurement": "TGI", "setting": "[3]", "result": 72.8, "unit": "µM"}, {"measurement": "TGI", "setting": "[4]", "result": 39.5, "unit": "µM"}, {"measurement": "TGI", "setting": "[6]", "result": 42.7, "unit": "µM"}, {"measurement": "TGI", "setting": "[7]", "result": 33.2, "unit": "µM"}, {"measurement": "TGI", "setting": "[8]", "result": 35.5, "unit": "µM"}]}
{"smiles": "COc1cc2c3c(n([C@@H]4CCOC4)c(=O)c2cc1OC)-c1cc2c(cc1C3=O)OCO2", "values": [{"measurement": "GI50", "setting": "[1]", "result": "< 0.01", "unit": "µM"}, {"measurement": "TGI", "setting": "[1]", "result": 0.0183, "unit": "µM"}, {"measurement": "GI50", "setting": "[6]", "result": "< 0.01", "unit": "µM"}, {"measurement": "TGI", "setting": "[6]", "result": "> 100", "unit": "µM"}]}
